“Also recorded” adds a separate entry of the source.
Tests used:
[1] = tested on: green LED-induced antinociception; test: Paw withdrawal latency (Hargreaves) after antagonists in green LED exposed naïve rats; type: in vivo, rat
Source text: Pathogen-free, adult male and female Sprague-Dawley as well as male Long Evans rats (weight at testing 250-350 g; Harlan-Sprague-Dawley, Indianapolis, Ind.) were housed in a climate-controlled room on a 12-h light/dark cycle and were allowed to have food and water ad libitum. All procedures were approved by the University of Arizona Animal Care and Use Committee and conform to the guidelines for the use of laboratory animals of the National Institutes of Health (publication no, 80-23, 1966). All behavioral experiments were conducted by experimenters blinded to the treatment conditions.
All visible spectrum LED flex strips were purchased from ledsupply.com (VT, USA). The specification of the LED were: (i) #LS-AC60-6-BL, 472 nanometer wavelength (i.e., blue), 8 watts, 120 Volts, 120 degree beam angle; (ii) #LS-AC60-6-GR, 525 nanometer wavelength (i.e., green), 8 watts, 120 Volts, 120 degree beam angle; and (iii) #LS-AC60-66-WH, white, 9.6 watts, 120 Volts, 120 degree beam angle. LED strips were affixed to the outside of clear plastic cages that housed the rats so as to avoid the strips from being chewed. Rats were exposed to the various LED in these cages with full access to food and water in a dark room devoid of any other source of light. Following behavioral assessment, the rats were returned to their cages for additional LED exposure. At the end of daily testing, the rats were returned to their regular animal room where they were exposed to regular room light (regular florescent bulbs). A lux meter (Tondaj LX1010B, Amazon.com) was used to determine the illuminance and luminous emittance of the LED strips.
(§1) The method of Hargreaves et al. was used. Rats were acclimated within Plexiglas enclosures on a clear glass plate maintained at 30° C. A radiant heat source (high-intensity projector lamp) was focused onto the plantar surface of the hind paw. When the paw was withdrawn, a motion detector halted the stimulus and a timer. A maximal cutoff of 33.5 sec was used to prevent tissue damage.
For intrathecal drug administration, rats were chronically implanted with catheters as described by Yaksh and Rudy. Rats were anesthetized with isoflurane and placed in a stereotactic device. The occipital muscles were separated from their occipital insertion and retracted caudally to expose the cisternal membrane at the base of the skull. Polyethylene tubing was passed caudally from the cisterna magna to the level of the lumbar enlargement. Animals were allowed to recover and were examined for evidence of neurologic injury. Animals with evidence of neuromuscular deficits were excluded.
The antinociceptive effects of green LED indicates a possible involvement of endogenous mediators linked to pain, such as opioids and cannabinoids. To test this hypothesis naïve rats exposed to green LED for eight hours daily for five days were administered antagonists and then PWLs were measured 20-30 minutes later.
Thus, to elucidate the role of die adrenergic system, several adrenergic receptors antagonists were tested. […] Additionally, rats exposed to green LED maintained regular grooming behaviors, which is in contrast to diminished grooming observed in stressed rats.

[2] = calcium indicator, λex 340, 380 nm; cited from earlier work
[3] = tested on: rats; test: HIV sensory neuropathy model, thermal hyperalgesia (Hargreaves test); type: in vivo, rat; details: intrathecal gp120, 300 ng
Experimental: as §1
(§2) Thermal hyperalgesia and mechanical allodynia are produced by intrathecal administration of the human immunodeficiency virus-1 (HIV-1) envelope glycoprotein, gp120 [60]. Seven days after implantation of an intrathecal catheter, baseline behavioral measurements were obtained and then rats were randomly assigned to two groups. On days 10 and 13, one group of rats were injected i.t. with 300 ng gp120 in a final volume of 20 µl in 0.9% saline while the other group were injected in a similar fashion with 0.9% saline.

[4] = tested on: rats; test: HIV sensory neuropathy model, mechanical allodynia (von Frey test); type: in vivo, rat; details: intrathecal gp120, 300 ng, compared to pre-gp120 baseline
Experimental: The assessment of tactile allodynia (i.e., a decreased threshold to paw withdrawal after probing with normally innocuous mechanical stimuli) consisted of testing the withdrawal threshold of the paw in response to probing with a series of calibrated fine (von Frey) filaments. Each filament was applied perpendicularly to the plantar surface of the paw of rats held in suspended wire mesh cages. Withdrawal threshold was determined by sequentially increasing and decreasing the stimulus strength (the “up and down” method), and data were analyzed with the nonparametric method of Dixon, as described by Chaplan et al and expressed as the mean withdrawal threshold.
as §2

[5] = tested on: rostral ventromedial medulla (RVM); test: Lidocaine microinjection into the RVM, paw withdrawal latency in green LED exposed rats; type: in vivo, rat; details: 2% lidocaine microinjected into the RVM of naïve rats exposed to green LED
Experimental: as §1
Rats received a bilateral guide cannula (26 GA, #C235-1.2 mm, Plastics One Inc.) directed to the RVM. The cannula was placed at: −11.0 from bregma, −7.5 mm from the dura and 0.6 mm on either side of the midline. Injections were made by expelling 0.5 μl through an injection cannula protruding 1 mm beyond the tip of the guide. Cannula placement was confirmed with 0.5 μl Evans Blue injected into both sides of the cannula and microscopic examination of medullary sections. Acute single injections into the RVM were performed by inserting an injector (Plastics One Inc) attached to a 2 μl Hamilton syringe and expelling 0.5 μl at the same coordinates.
Neurons within the rostral ventromedial medulla (RVM) have been reported to project to the spinal or medullary dorsal horns to directly or indirectly enhance or diminish nociceptive traffic. As this descending modulatory circuit is “opioid-sensitive”, next the contribution of the RVM in the green LED-induced antinociceptive response was examined.

[6] = cannabinoid receptor antagonists, systemic (i.p.) 1 mg/kg, green LED eight hours daily for five days, 1 mg/kg
[7] = intrathecal (i.t.), 20 μg, green LED eight hours daily for five days, PWL 20-30 minutes after antagonist
[8] = alpha- and beta-adrenergic receptor antagonists, i.p. (doses in Table 1), green LED exposed rats

**Q.** Which “effect on green LED-induced antinociception (paw withdrawal latency)” value (“effect” below) [1, 6] does the source give for COc1ccc(C(=O)c2c(C)n(CCN3CCOCC3)c3cc(I)ccc23)cc1 [AM630] here?
**A.** unaffected

**Q.** For CN1CC[C@]23c4c5ccc(O)c4O[C@H]2[C@@H](O)C=C[C@H]3[C@H]1C5 [morphine], which “effect” value [1, 7] is on record?
**A.** reversed the antinociception

**Q.** Which “effect” value [1, 7] does the source give for C=CCN1CC[C@]23c4c5ccc(O)c4O[C@H]2C(=O)CC[C@@]3(O)[C@H]1C5 [Naloxone] here?
**A.** reversed, to baseline levels

**Q.** What about the “effect” value ([1]; intrathecal (i.t.), 20 μg, green LED eight hours daily for five days, PWL 20-30 minutes after antagonist, listed as naloxone) of the same compound?
**A.** reversed green LED-induced thermal analgesia

**Q.** And the “effect” value ([1]; naloxone systemic (printed subcutaneous / 20 mg/kg i.p.), green LED eight hours daily for five days, PWL 20-30 minutes after antagonist, 20 mg/kg)?
**A.** reversed, to baseline levels

**Q.** And the “effect” value ([1]; naloxone systemic (printed subcutaneous / 20 mg/kg i.p.), green LED eight hours daily for five days, PWL 20-30 minutes after antagonist, listed as naloxone, 20 mg/kg)?
**A.** reversed green LED-induced thermal analgesia

**Q.** With CC(=O)OCOC(=O)CN(CC(=O)OCOC(C)=O)c1ccc(C)cc1OCCOc1cc2cc(-c3ncc(C(=O)OCOC(C)=O)o3)oc2cc1N(CC(=O)OCOC(C)=O)CC(=O)OCOC(C)=O [Fura-2AM] as the compound, how does the Kd [2] read?
**A.** 25 µM

**Q.** Which “effect” value [1, 8] does the source give for CC(COc1ccccc1)N(CCCl)Cc1ccccc1 (centres unmarked) [Phenoxybenzamine] here?
**A.** failed to prevent or reverse the antinociceptive effect of green LED; also recorded: failed to reverse green LED-induced thermal analgesia

**Q.** With “gp120: viral envelope glycoprotein 120 of HIV-1, recombinant HIV-1 IIIB gp120, NIH AIDS Reagent Program” as the compound, how does the “thermal hyperalgesia (paw withdrawal latency)” value [3] read?
**A.** produced a thermal hyperalgesia

**Q.** What about the “mechanical allodynia (paw withdrawal threshold)” value [4] of the same compound?
**A.** lowered thresholds for paw withdrawals compared to baseline

**Q.** With CCN(CC)CC(=O)Nc1c(C)cccc1C [lidocaine] as the compound, how does the “effect” value [5] read?
**A.** prevented the subsequent development of antinociception; also recorded: reversed green LED-induced thermal analgesia

**Q.** Which “effect” value [1, 8] does the source give for CC(C)NCC(O)COc1cccc2ccccc12 (centres unmarked) [propranolol] here?
**A.** failed to prevent or reverse the antinociceptive effect of green LED; also recorded: failed to reverse green LED-induced thermal analgesia

**Q.** Which “effect” value [1, 6] does the source give for Cc1c(C(=O)NN2CCCCC2)nn(-c2ccc(Cl)cc2Cl)c1-c1ccc(I)cc1 [AM251] here?
**A.** reversed the green LED-induced antinociception; also recorded: reversed green LED-induced thermal analgesia

**Q.** For Cc1ccc(N(CC2=NCCN2)c2cccc(O)c2)cc1 [Phentolamine], which “effect” value [1, 8] is on record?
**A.** failed to prevent or reverse the antinociceptive effect of green LED; also recorded: failed to reverse green LED-induced thermal analgesia
